Results: ChEMBL document CHEMBL1126120, “Synthesis and biological evaluation of dihydroeptastatin, a novel inhibitor of 3-hydroxy-3-methylglutaryl coenzyme A reductase” (J Med Chem, 1992)

Assays:
HES = assay: Concentration required to inhibit HMG-CoA reductase by 50% was determined in HES 9 cell line; format: functional, cell-based; details: Homo sapiens
[1] = target: T1, 3-hydroxy-3-methylglutaryl-coenzyme A reductase (Homo sapiens, UniProt P04035); assay: Concentration required to inhibit HMG-CoA reductase by 50% was determined in Hep G2 cell line; format: functional, cell-based, HepG2
T1 sequence (P04035 whole entry): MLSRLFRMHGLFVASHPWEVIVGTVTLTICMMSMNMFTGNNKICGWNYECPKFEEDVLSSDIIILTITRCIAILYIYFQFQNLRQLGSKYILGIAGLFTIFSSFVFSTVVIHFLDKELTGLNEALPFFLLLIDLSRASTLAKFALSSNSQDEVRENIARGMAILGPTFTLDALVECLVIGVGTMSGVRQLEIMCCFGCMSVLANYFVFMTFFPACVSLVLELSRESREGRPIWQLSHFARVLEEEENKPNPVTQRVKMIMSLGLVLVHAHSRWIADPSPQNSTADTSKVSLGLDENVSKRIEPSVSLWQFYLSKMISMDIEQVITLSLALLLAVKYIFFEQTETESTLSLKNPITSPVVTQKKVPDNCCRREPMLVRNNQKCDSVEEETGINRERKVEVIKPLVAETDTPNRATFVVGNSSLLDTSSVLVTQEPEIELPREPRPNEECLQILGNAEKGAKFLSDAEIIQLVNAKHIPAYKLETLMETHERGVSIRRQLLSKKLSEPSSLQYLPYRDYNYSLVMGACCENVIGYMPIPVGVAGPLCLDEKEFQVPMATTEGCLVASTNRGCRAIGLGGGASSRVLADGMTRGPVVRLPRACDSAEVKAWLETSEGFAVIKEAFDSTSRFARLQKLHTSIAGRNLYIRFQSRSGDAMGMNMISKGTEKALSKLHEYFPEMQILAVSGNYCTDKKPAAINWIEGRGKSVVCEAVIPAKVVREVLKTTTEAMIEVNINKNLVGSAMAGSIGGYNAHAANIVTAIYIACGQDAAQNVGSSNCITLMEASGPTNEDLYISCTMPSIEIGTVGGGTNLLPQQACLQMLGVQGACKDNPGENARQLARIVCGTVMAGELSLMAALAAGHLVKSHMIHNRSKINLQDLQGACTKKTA

[2] = target: T2, 3-hydroxy-3-methylglutaryl-coenzyme A reductase (Rattus norvegicus, UniProt P51639); assay: Inhibitory activity against HMG-CoA reductase from rat liver microsomal preparation
T2 sequence (P51639 whole entry): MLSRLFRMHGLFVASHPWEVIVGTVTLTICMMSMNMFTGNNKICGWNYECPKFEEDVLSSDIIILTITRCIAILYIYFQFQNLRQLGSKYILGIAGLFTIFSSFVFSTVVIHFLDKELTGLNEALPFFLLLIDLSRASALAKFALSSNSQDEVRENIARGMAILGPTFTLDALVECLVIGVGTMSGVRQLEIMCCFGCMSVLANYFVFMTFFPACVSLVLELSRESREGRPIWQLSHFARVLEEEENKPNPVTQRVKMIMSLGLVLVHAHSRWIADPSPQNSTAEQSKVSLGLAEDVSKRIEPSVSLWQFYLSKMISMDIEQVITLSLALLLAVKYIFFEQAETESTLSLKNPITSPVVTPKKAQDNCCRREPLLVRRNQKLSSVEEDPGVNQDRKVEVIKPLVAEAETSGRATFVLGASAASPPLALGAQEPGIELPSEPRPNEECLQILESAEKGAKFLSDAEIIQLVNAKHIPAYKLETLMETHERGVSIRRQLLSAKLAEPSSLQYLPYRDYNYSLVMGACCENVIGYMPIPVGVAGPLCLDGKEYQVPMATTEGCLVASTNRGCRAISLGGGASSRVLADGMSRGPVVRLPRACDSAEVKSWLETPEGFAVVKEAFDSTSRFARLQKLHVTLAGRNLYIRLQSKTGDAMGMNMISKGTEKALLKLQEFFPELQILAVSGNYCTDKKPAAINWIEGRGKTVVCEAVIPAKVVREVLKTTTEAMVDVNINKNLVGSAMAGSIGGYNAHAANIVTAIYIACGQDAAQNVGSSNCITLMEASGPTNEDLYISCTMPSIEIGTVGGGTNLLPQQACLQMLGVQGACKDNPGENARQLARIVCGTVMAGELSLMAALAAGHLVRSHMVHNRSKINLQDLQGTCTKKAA

`CC[C@H](C)C(=O)O[C@H]1C[C@H](O)C[C@@H]2C=C[C@H](C)[C@H](CCC3C[C@@H](O)CC(=O)O3)[C@@H]12` (stereo not given in full) showed an IC50 (HES) of 7000 nM and an IC50 [1] of 1400 nM.

`CC[C@H](C)C(=O)O[C@H]1C[C@H](O)C[C@@H]2C=C[C@H](C)[C@H](CC[C@H](O)C[C@H](O)CC(=O)O)[C@@H]12` showed an IC50 (HES) of 7280 nM, an IC50 [1] of 2220 nM and an IC50 [2] of 14 nM.

`CC[C@H](C)C(=O)O[C@H]1C[C@@H](C)C=C2C=C[C@H](C)[C@H](CC[C@@H](O)C[C@@H](O)CC(=O)O)[C@H]21` showed an IC50 (HES) of 17 nM and an IC50 [1] of 29 nM.

Work on `CC[C@H](C)C(=O)O[C@H]1C[C@@H](C)C=C2C=C[C@H](C)[C@H](CC[C@@H]3C[C@@H](O)CC(=O)O3)[C@H]21` [LOVASTATIN] yielded an IC50 (HES) of 13 nM.

Compound `CCC(C)(C)C(=O)O[C@H]1C[C@@H](C)C=C2C=C[C@H](C)[C@H](CC[C@@H](O)C[C@@H](O)CC(=O)O)[C@H]21` has an IC50 (HES) of 6.5 nM and an IC50 [1] of 12 nM.
